Measured values: paper PMC3843672, “Resistance to Degradation and Cellular Distribution are Important Features for the Antitumor Activity of Gomesin” (PLoS ONE, 2013)
Where a SMILES comes first, the peptide text is derived from it. [ ]: non-standard residue; d: D form. d(pGlu) = O=C1CC[C@H](C(=O)O)N1; pGlu = O=C1CC[C@@H](C(=O)O)N1

Columns and labels:
[1] = Resistance to degradation by lysosomal enzymes (LC/ESI-MS); type: in vitro ADME; settings: 37°C; for resistance to lysosomal enzyme degradation (in words): sonicated cells, pH 5 Tris buffer, different times, LC/ESI-MS (Figure 2B); for Peptide Degradation: sonicated cultured cells in pH 5 Tris buffer (lysosomal enzymes), incubation 1–14 h, starting peptide concentration 10^−4 M taken as 100%, LC/ESI-MS, mean ± SEM
Protocol: The cultured cells were resuspended using pH 5 Tris buffer, and then sonicated. Protein concentration was measured using the RC DC protein assay kit (Bio-Rad, CA, USA) according to the manufacturer’s instructions. The peptides were incubated with this protein solution for 1–14 h, and its stability was evaluated by reversed-phase liquid chromatography coupled with an electrospray ionization mass spectrometer (LC/ESI-MS).
Figure 2 Lysosomal enzymes participate in the cytotoxic reduction activities of the Gm analogues. (A, C and D) Cell viability was assessed by the MTT reduction test. (A) Cells were incubated with cytoskeletal inhibitor (cytochalasin D), and lysosomal inhibitor (chloroquine) for 1 h before to stimulation by Gm, and its analogues for 24 h. Chloroquine potentiated the cytotoxicity of peptides. (B) Since chloroquine was able to potentiate the cytotoxicity of the peptides, resistance to degradation of lysosomal enzymes was evaluated by LC/ESI-MS. Peptides were incubated at 37°C for different times. (C) Cells were incubated with the IC50 concentration for each peptide. Cytotoxic activities after 24 and 72 h of the peptide incubation were compared.

B16 cells = assay: Peptide internalized into cells, biotinylated peptides, flow cytometry; type: cell-based, mouse; settings: for internal presence of peptide after 24 h: 2 µM biotinylated peptides; for Max. Internal Fluorescence: biotinylated peptides used, 2 µM, B16 cells, streptavidin-Alexa 647 (FL4) after fixation and saponin permeabilization, maximum over time course, mean ± SEM, three independent experiments
Protocol: Cells were treated with the 2 µM biotinylated peptide. Then, the melanoma cells (5×10^5 for flow cytometry or 5×10^3 cell seeded for confocal microscopy) were labeled with streptavidin-Alexa 488 (Invitrogen, USA) for 30 min at 4°C and washed with PBS. The cells were fixed with a solution of 2% paraformaldehyde for 30 min, washed with 0.1 M glycin, and permeabilized with 0.01% saponin. Then, the cells were labeled with streptavidin-Alexa 647 (Invitrogen, USA). For flow cytometry, the cells were extracted using PBS with 5 mM EDTA previously to fixation. The quantification of label of external biotynilated peptide, and intracellular peptide were performed by flow cytometry or confocal microscopy. For flow cytometry the cells were excited using argon laser (488 nm), and diode laser (633 nm). The emission was collected in FL-1 and FL-4 channel. A total of 10,000 events were collected per sample. For confocal microscopy, nuclei were stained with DAPI. Confocal microscopy analyses were performed with a confocal laser scanning microscope equipped with a Plan-Apochromat ×63 objective under oil immersion (Zeiss, LSM780). The pinhole device was adjusted to capture fluorescence of one airy unit. The images correspond to single focal plane. Streptavidin-Alexa Fluor 488 were excited using an argon laser (λEx. = 488 nm, λEm. = 505–550 nm), streptavidin-Alexa Fluor 647 was excited using a HeNe laser (λEx. = 633 nm, λEm. = 640–710 nm) and DAPI was excited using a multiphoton laser (Coherent) (λEx. = 750 nm, λEm. = 380–460 nm). Unviable cells were excluded with propidium iodide (PI) label.
We quantified the Gm and analogues binding to the cellular membrane, and their internalization using their biotinylated counterpart. […] Unviable cells were excluded by PI label (Figure S2). External peptides labeled with streptavidin Alexa Fluor 488 were identified for the quantification of the green fluorescence (FL1 channel), and internal peptides labeled with streptavidin Alexa Fluor 647 were identified for the quantification of the deep red fluorescence (FL4 channel), after permeabilization of cellular membrane, by Flow cytometry. […] On the other hand, the peptides that present lower cytotoxicity were not retained after 24 h (Figure 3A-F). However, a direct relation between binding, peptide entrance, and cytotoxicity effect was not full observed, the entrance into cells seem to be important to the action of several AMPs. To verify the participation of the entry of peptide with cytotoxicity cholesterol level cholesterol level was reduced incubating the cells with MβCD for 1 h, which increase the membrane fluidity. As expected, the treatment of the cells with MβCD increases the entry of peptide (Figure 3G) and increases the cytotoxicity of the peptides, except the analogue [Thr^2,6,11,15]-Gm (Figure 3H).

[2] = test system: B16 F10 mouse melanoma cell line; type: cell-based; settings: 24 h
Protocol: B16 F10 mouse melanoma cell line was cultured in RPMI medium supplemented with 10% fetal bovine serum (FBS; Gibco, USA), 10 U/ml penicillin and 10 µg/ml streptomycin. Cells were cultured in a humidified incubator containing 2.5% CO2 at 37°C.
B16 cells were incubated in 96-well microtiter plates in RPMI medium supplemented with 10% FBS until reach the semi-confluence and then treated with different concentrations of Gm and its analogues for 24 h. To investigate the mechanisms of Gm-induced cell death, B-16 cells were also pre-incubated with 40 µM cytochalasin D (Tocris, USA); 20 µM necrostatin-1 (Tocris, USA), 10 µM Z-VAD (Tocris, USA), 5 mM MβCD (Tocris, USA), and 100 µM chloroquine (Tocris, USA) for 1 h. Cell viability was determined using the standard reduction of the tetrazolium salt 3-(4,5-dimethylthiazol-2-yl)-2,5-diphenyltetrazolium bromide (MTT). The results were expressed relative to control cell viability (100%).

With `CC(C)C[C@@H](NC(=O)[C@@H](CCCNC(=N)N)NC(=O)[C@@H](CCCNC(=N)N)NC(=O)[C@H](NC(=O)[C@H]1CCC(=O)N1)[C@H](C)O)C(=O)N[C@@H](C(=O)N[C@H](Cc1ccc(O)cc1)C(=O)N[C@H](CCCCN)C(=O)N1CCC[C@H]1C(=O)N[C@H](CCCNC(=N)N)C(=O)N[C@@H](C(=O)N[C@@H](C(=O)N[C@@H](C(=O)N[C@H](Cc1ccc(O)cc1)C(=O)N[C@@H](C(=O)N[C@H](CCCNC(=N)N)C(=O)NCC(=O)N[C@H](CCCNC(=N)N)C(N)=O)[C@H](C)O)[C@H](C)O)C(C)C)[C@H](C)O)[C@H](C)O` [[D-Thr^2,6,11,15, Pro^9]-D-Gm] ([d(pGlu)][dT][dR][dR][dL][dT][dY][dK]P[dR][dT][dV][dT][dY][dT][dR]G[dR]-NH2) the “resistance to lysosomal enzyme degradation (in words)” value (“resistance” for short) [1] was “little affected by lysosomal enzymes”, the “Peptide Degradation” value [1] was 15±2% and the “internal presence of peptide after 24 h” value (B16 cells) was “internal presence”. For the same compound, the “Max. Internal Fluorescence” value (B16 cells) was 2751±190 AU and the IC50 [2] was 75 µM.

In the case of `CC(C)C[C@@H](NC(=O)[C@@H](CCCNC(=N)N)NC(=O)[C@@H](CCCNC(=N)N)NC(=O)[C@H](NC(=O)[C@H]1CCC(=O)N1)[C@H](C)O)C(=O)N[C@@H](C(=O)N[C@H](Cc1ccc(O)cc1)C(=O)N[C@H](CCCCN)C(=O)N[C@H](CCC(N)=O)C(=O)N[C@H](CCCNC(=N)N)C(=O)N[C@@H](C(=O)N[C@@H](C(=O)N[C@@H](C(=O)N[C@H](Cc1ccc(O)cc1)C(=O)N[C@@H](C(=O)N[C@H](CCCNC(=N)N)C(=O)NCC(=O)N[C@H](CCCNC(=N)N)C(N)=O)[C@H](C)O)[C@H](C)O)C(C)C)[C@H](C)O)[C@H](C)O` [[D-Thr^2,6,11,15]-D-Gm] ([d(pGlu)][dT][dR][dR][dL][dT][dY][dK][dQ][dR][dT][dV][dT][dY][dT][dR]G[dR]-NH2), the “resistance” value [1] is reported as “little affected by lysosomal enzymes”, the “Peptide Degradation” value [1] is reported as 12±2% and the “internal presence of peptide after 24 h” value (B16 cells) is reported as “internal presence”. The “Max. Internal Fluorescence” value (B16 cells) was 602±12 AU, the IC50 [2] was 25 µM and the “fold less potent than Gm” value ([2]; B16 cells, MTT, ratio of potencies) was 3.5 fold.

For `CC(C)C[C@H](NC(=O)[C@H](CCCNC(=N)N)NC(=O)[C@H](CCCNC(=N)N)NC(=O)[C@H](CO)NC(=O)[C@@H]1CCC(=O)N1)C(=O)N[C@@H](CO)C(=O)N[C@@H](Cc1ccc(O)cc1)C(=O)N[C@@H](CCCCN)C(=O)N[C@@H](CCC(N)=O)C(=O)N[C@@H](CCCNC(=N)N)C(=O)N[C@@H](CO)C(=O)N[C@H](C(=O)N[C@H](C(=O)N[C@@H](Cc1ccc(O)cc1)C(=O)N[C@@H](CO)C(=O)N[C@@H](CCCNC(=N)N)C(=O)NCC(=O)N[C@@H](CCCNC(=N)N)C(N)=O)[C@@H](C)O)C(C)C` [[Ser^2,6,11,15]-Gm] ([pGlu]SRRLSYKQRSVTYSRGR-NH2), the “resistance” value [1] was “most sensitive peptides to degradation”, the “Peptide Degradation” value [1] was 47±5% and the “Max. Internal Fluorescence” value (B16 cells) was 305±65 AU. For the same compound, the IC50 [2] was over 200 µM.

For `CC(C)C[C@H](NC(=O)[C@H](CCCNC(=N)N)NC(=O)[C@H](CCCNC(=N)N)NC(=O)[C@@H](NC(=O)[C@@H]1CCC(=O)N1)[C@@H](C)O)C(=O)N[C@H](C(=O)N[C@@H](Cc1ccc(O)cc1)C(=O)N[C@@H](CCCCN)C(=O)N1CCC[C@@H]1C(=O)N[C@@H](CCCNC(=N)N)C(=O)N[C@H](C(=O)N[C@H](C(=O)N[C@H](C(=O)N[C@@H](Cc1ccc(O)cc1)C(=O)N[C@H](C(=O)N[C@@H](CCCNC(=N)N)C(=O)NCC(=O)N[C@@H](CCCNC(=N)N)C(N)=O)[C@@H](C)O)[C@@H](C)O)C(C)C)[C@@H](C)O)[C@@H](C)O` [[Thr^2,6,11,15, D-Pro^9]-Gm] ([pGlu]TRRLTYK[dP]RTVTYTRGR-NH2), the “resistance” value [1] was “stable to enzymatic degradation”, the “Peptide Degradation” value [1] was 16±1% and the “internal presence of peptide after 24 h” value (B16 cells) was “internal presence”. For the same compound, the “Max. Internal Fluorescence” value (B16 cells) was 1165±27 AU and the IC50 [2] was 90 µM.

For `CC(C)C[C@H](NC(=O)[C@H](CCCNC(=N)N)NC(=O)[C@H](CCCNC(=N)N)NC(=O)[C@@H](NC(=O)[C@@H]1CCC(=O)N1)[C@@H](C)O)C(=O)N[C@H](C(=O)N[C@@H](Cc1ccc(O)cc1)C(=O)N[C@@H](CCCCN)C(=O)N[C@@H](CCC(N)=O)C(=O)N[C@@H](CCCNC(=N)N)C(=O)N[C@H](C(=O)N[C@H](C(=O)N[C@H](C(=O)N[C@@H](Cc1ccc(O)cc1)C(=O)N[C@H](C(=O)N[C@@H](CCCNC(=N)N)C(=O)NCC(=O)N[C@@H](CCCNC(=N)N)C(N)=O)[C@@H](C)O)[C@@H](C)O)C(C)C)[C@@H](C)O)[C@@H](C)O` [[Thr^2,6,11,15]-Gm] ([pGlu]TRRLTYKQRTVTYTRGR-NH2), the “resistance” value [1] was “most sensitive peptides to degradation”, the “Peptide Degradation” value [1] was 43±4% and the “Max. Internal Fluorescence” value (B16 cells) was 753±175 AU. The IC50 [2] was over 200 µM.
